Measurements from patent EP0320366A1, “Monoclonal antibodies against phospholipase A2 from the venom of snakes of the families Elapides and Hidrophides, methods for their preparation and their use in detecting poisoning caused by these snake families” (COMMISSARIAT A L'ENERGIE ATOMIQUE, priority 1987, dated 1989).

How the values were obtained:
[1] = molecular target: T1, notexine (PLA₂ du venin de Notechis scutatus scutatus) en présence d'anticorps MN₁ (Notechis scutatus scutatus, UniProt P00608); assay: Enzymatic activity of notexin pre-incubated with monoclonal antibody MN₁, by pH-stat titration and Lineweaver-Burk analysis; type: biochemical; conditions: same substrate and conditions; MN₁ in 10-fold molar excess over notexin, pre-incubated 1 h at room temperature; read graphically; also printed as 0,034 M
T1 sequence (P00608 1-119): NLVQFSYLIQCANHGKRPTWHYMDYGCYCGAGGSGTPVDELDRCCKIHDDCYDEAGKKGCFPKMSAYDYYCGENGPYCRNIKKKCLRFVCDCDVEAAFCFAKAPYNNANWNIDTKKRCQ
Procedure: (§1) La mesure de l'activité enzymatique est réalisée à l'aide d'un appareil pH stat (Methrom). Les acides gras libérés sont titrés à pH constant (pH = 8), par une solution d'hydroxyde de Na 0,01 N à 40°C.
(§2) Le substrat est une émulsion de phosphatidylcholine (Halpert - Eaker, 1975), dans une solution de CaCl₂ 20 mM, NaCl 0,12 M, en présence de désoxycholate de sodium.
(§3) Le rapport concentration finale de phosphatidylcholine/concentration finale de désoxycholate de sodium est maintenu constant, égal à 3,7.
(§4) Les solutions initiales sont : phosphatidylcholine : 600 mM dans l'éthanol, désoxycholate de sodium : 270 mM dans H₂O. Le volume réactionnel final est de 4 ml.
(§5) Les volumes de soude ajoutés pour maintenir le pH constant sont enregistrés automatiquement en fonction du temps.
Les anticorps monoclonaux sont dialysés pendant 24 heures dans la solution de CaCl₂ utilisée pour effectuer les mesures, afin d'éviter une modification du pH du milieu réactionnel, lors de l'addition des anticorps. Ils sont incubés avec la notexine pendant une heure à température ambinate.
L'activité enzymatique de la notexine ainsi traitée, est alors mesurée.
L'analyse cinétique de la réaction enzymatique a été faite par deux méthodes : mesure de Vi et mesure de Vmax. […]

[2] = molecular target: T2, notexine (PLA₂ du venin de Notechis scutatus scutatus), notexine seule (Notechis scutatus scutatus, UniProt P00608); assay: Enzymatic activity of notexin by pH-stat titration of released fatty acids, Lineweaver-Burk analysis; type: biochemical; conditions: substrate: phosphatidylcholine emulsion 7,5-82,5 mM with sodium deoxycholate (ratio 3,7), CaCl₂ 20 mM, NaCl 0,12 M, pH 8, 40°C; notexin 0,5 µg/4 ml; read graphically; also printed as 0,034 M
T2 sequence (P00608 1-119): T1 sequence (P00608 1-119)
Procedure: as §1, §2, §3, §4, §5
L'analyse cinétique de la réaction enzymatique a été faite par deux méthodes : mesure de Vi et mesure de Vmax.
Pour l'étude de Vi = f( [S] ) et 1/Vi = f(1/ [S]), à concentration de notexine constante ( [Et] = 0,5 µg/4 ml), la concentration de substrat varie de 7,5 mM à 82,5 mM. La mesure est réalisée en absence et en présence d'anticorps monoclonaux polyspécifiques MN₁, en excès molaire de 10 par rapport à la notexine. […]

## phosphatidylcholine
[1]
  Km: 34 mM
[2]
  Km: 34 mM
